Laboratory results published in ChEMBL document CHEMBL3272192, “Thyroxine analogues. 23. Quantitative structure-activity correlation studies of in vivo and in vitro thyromimetic activities” (1977).

Experiments:
[1] = system: Rattus norvegicus; experiment: In vivo antigoiter activity in rat; type: functional
[2] = target: T1, Thyroxine-binding globulin (Homo sapiens) (UniProt P05543); experiment: Binding affinity to thyroxine binding globulin (unknown origin) relative to T4
T1 sequence (whole entry): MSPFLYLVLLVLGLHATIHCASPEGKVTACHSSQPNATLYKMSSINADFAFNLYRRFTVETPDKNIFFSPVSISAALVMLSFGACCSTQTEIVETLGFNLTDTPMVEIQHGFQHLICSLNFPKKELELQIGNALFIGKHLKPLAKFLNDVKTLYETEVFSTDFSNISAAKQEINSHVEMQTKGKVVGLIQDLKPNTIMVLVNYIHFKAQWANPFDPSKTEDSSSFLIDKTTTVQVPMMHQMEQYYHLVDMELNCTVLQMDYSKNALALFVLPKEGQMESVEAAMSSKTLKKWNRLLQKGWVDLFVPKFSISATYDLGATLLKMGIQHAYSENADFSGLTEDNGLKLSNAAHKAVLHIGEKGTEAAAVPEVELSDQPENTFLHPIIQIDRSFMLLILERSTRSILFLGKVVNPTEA

[3] = organism: Rattus norvegicus; experiment: Displacement of radiolabelled L-T3 from thyroid hormone receptor in intact rat hepatic nuclei relative to T3

Row | RBA [2] [%] | log(%) [2] | RBA [3] [%] | log(%) [3] | Compound | Activity [1] [%] | log(%) [1]
1 | 0.1 | -1 | 20 | 1.3 | CC(C)Cc1cc(Oc2c(I)cc(CC(N)C(=O)O)cc2I)ccc1O (centres undefined) | 7.74 | 0.889
2 | 0.28 | -0.553 | 13.5 | 1.13 | Cc1cc(Oc2c(I)cc(CC(N)C(=O)O)cc2I)ccc1O (centres undefined) | 14.47 | 1.16
3 | 1.59 | 0.201 | 21 | 1.32 | CCc1cc(Oc2c(I)cc(CC(N)C(=O)O)cc2I)ccc1O (centres undefined) | 40.8 | 1.611
4 | 0.29 | -0.538 | 6.2 | 0.792 | Cc1cc(Oc2c(I)cc(CC(N)C(=O)O)cc2I)cc(C)c1O (centres undefined) | 9.04 | 0.956
